“And” between values parts separate entries of the source, which are not always exact repeats. Equal values may be shown once. Marks after values point to notes of the source that are not given here.
Assay: Strength and degradation profile of tigecycline 20 mg/mL bulk solutions by reversed phase HPLC (effect of temperature, time, pH, dissolved oxygen; Runs A to O)
Format: physicochemical
Details: 20 mg/mL
Description: The contents of the sample vials are dissolved in diluent. The sample solution is diluted, if necessary, and chromatographed on a reversed phase column using gradient elution. Impurities are determined by comparing the impurity peak areas in the sample preparation chromatogram to the average area of tigecycline peaks in the standard preparation chromatograms obtained concomitantly.
Chromatographic Column—Length about 15 cm, inside diameter about 4.6 mm, packed with Inertsil ODS2, 5 μm size particles or equivalent.
Detector—Ultraviolet spectrophotometric detector capable of operating at 248 nm with a sensitivity of about 0.5 absorbance units full scale.
The results of additional studies to investigate the effect of processing parameters such as temperature, time, and dissolved oxygen content on the purity profile of tigecycline solutions using the following materials, methods and procedures are presented in Tables A to O.
The experiments were run in plastic glove bags under normal laboratory light conditions. Plastic glove boxes will be used to control the headspace of the beakers. The batch size was 200 mL. • 1. Prepare the glove bag with a mixture of nitrogen and air to achieve an oxygen level in the solution as per the design. • 2. Place the jacketed beaker on the magnetic stirrer. Connect it to the cooler. Set the cooler to the desired set point. • 3. Add 200 mL of SWFI in to the beaker. Allow equilibrating. Measure the temperature and oxygen content. When it reaches the desired condition, add accurately weighed API and mix until dissolved. If necessary use spatula to aid dissolution. For pH adjustments, use 4 mL of either 0.1N NaOH or 0.1N HCl and 196 mL of WFI for manufacture. • 4. After complete dissolution, Transfer about 5.5 mL of Solution in vials and stopper them. These vials will be stoppered at the appropriate headspace conditions. Place the vials in appropriate temperature conditions. • 5. Sample the vials at 1, 4, 8, 10, 12 and 24 hours. Send the samples for analysis. Freeze the 10, 12 and 24 samples at −20° C. for analysis the following day. • 6. Measure pH and record color of the solution at each time point. Results
The 1-hour samples were taken directly from the beakers. Samples for later time points were collected in stoppered vials processed in the atmosphere of the bag in order to simulate the headspace conditions then placed in water baths or refrigerator to maintain there respective temperature conditions. This was done to maintain safety in the lab. Disposable plastic glove bags require constant flow of a mixture of nitrogen and air to maintain headspace oxygen level that will result in the desired dissolved oxygen (DO) content in the sample. The pH of samples was measured at each sample points.
Strength and degradation profile was analyzed by HPLC as described above. […] Degradation was slightly higher at higher temperature condition.

[1] = Run #D, 8° C., pH 7.7, Oxygen 2.0 mg/L, hours 1,4,8,10,12,24 at r6-r11, after 4 hours
[2] = Run #D, 8° C., pH 7.7, Oxygen 2.0 mg/L, hours 1,4,8,10,12,24 at r6-r11, after 8 hours
[3] = Run #D, 8° C., pH 7.7, Oxygen 2.0 mg/L, hours 1,4,8,10,12,24 at r6-r11, after 10 hours
[4] = Run #D, 8° C., pH 7.7, Oxygen 2.0 mg/L, hours 1,4,8,10,12,24 at r6-r11, after 12 hours
[5] = Run #D, 8° C., pH 7.7, Oxygen 2.0 mg/L, hours 1,4,8,10,12,24 at r6-r11, after 24 hours
[6] = Run #D, 8° C., pH 7.7, Oxygen 2.0 mg/L, hours 1,4,8,10,12,24 at r17-r22, after 1 hours
[7] = Run #D, 8° C., pH 7.7, Oxygen 2.0 mg/L, hours 1,4,8,10,12,24 at r17-r22, after 4 hours
[8] = Run #D, 8° C., pH 7.7, Oxygen 2.0 mg/L, hours 1,4,8,10,12,24 at r17-r22, after 8 hours
[9] = Run #D, 8° C., pH 7.7, Oxygen 2.0 mg/L, hours 1,4,8,10,12,24 at r17-r22, after 10 hours
[10] = Run #D, 8° C., pH 7.7, Oxygen 2.0 mg/L, hours 1,4,8,10,12,24 at r17-r22, after 12 hours
[11] = Run #D, 8° C., pH 7.7, Oxygen 2.0 mg/L, hours 1,4,8,10,12,24 at r17-r22, after 24 hours
[12] = Run #E, 5° C., Oxygen = 2.0 mg/mL, hours 1,4,8,12,24 at r6-r10
[13] = Run #E, 5° C., Oxygen = 2.0 mg/mL, hours 1,4,8,12,24 at r16-r20, 1 hours
[14] = Run #E, 5° C., Oxygen = 2.0 mg/mL, hours 1,4,8,12,24 at r16-r20, 4 hours
[15] = Run #E, 5° C., Oxygen = 2.0 mg/mL, hours 1,4,8,12,24 at r16-r20, 8 hours
[16] = Run #E, 5° C., Oxygen = 2.0 mg/mL, hours 1,4,8,12,24 at r16-r20, 12 hours
[17] = Run #E, 5° C., Oxygen = 2.0 mg/mL, hours 1,4,8,12,24 at r16-r20, 24 hours
[18] = Run #F, 2° C., hours 1,4,8,12,24 at r5-r9, 1 h after preparation
[19] = Run #F, 2° C., hours 1,4,8,12,24 at r5-r9, 4 h after preparation

Compound: CN(C)c1cc(NC(=O)CNC(C)(C)C)c(O)c2c1C[C@H]1C[C@H]3[C@H](N(C)C)C(O)=C(C(N)=O)C(=O)[C@@]3(O)C(O)=C1C2=O [Tigecycline]
- Strength (Run #D, 8° C., pH 7.7, Oxygen 2.0 mg/L, hours 1,4,8,10,12,24 at r6-r11, after 1 hours): 19.168 mg/mL
- RRT 0.55 MW = 583 [1]: 0.16%
- RRT 0.74 Epimer [1]: 0.18%
- Strength [1]: 18.918 mg/mL
- RRT 0.55 MW = 583 [2]: 0.23%
- Strength [2]: 18.915 mg/mL
- RRT 0.55 MW = 583 [3]: 0.27%
- RRT 0.74 Epimer [3]: 0.25%
- Strength [3]: 19.292 mg/mL
- RRT 0.55 MW = 583 [4]: 0.29%
- RRT 0.74 Epimer [4]: 0.24%
- Strength [4]: 18.728 mg/mL
- RRT 0.55 MW = 583 [5]: 0.36%
- RRT 0.74 Epimer [5]: 0.27%
- Strength [5]: 18.050 mg/mL
- RRT 1.45 [6]: 0.07%
- RRT 1.67 MW = 556 [6]: 0.10%
- RRT 1.85 MW = 597 [6]: 0.08%
- Total [6]: 0.65%
- RRT 1.45 [7]: 0.19%
- RRT 1.67 MW = 556 [7]: 0.21%
- Total [7]: 1.09%
- RRT 1.45 [8]: 0.06%
- RRT 1.67 MW = 556 [8]: 0.37%
- RRT 1.85 MW = 597 [8]: 0.14%
- Total [8]: 1.57%
- RRT 1.67 MW = 556 [9]: 0.24%
- Total [9]: 2.27%
- RRT 1.45 [10]: 0.10%
- RRT 1.67 MW = 556 [10]: 0.28%
- RRT 1.85 MW = 597 [10]: 0.09%
- Total [10]: 2.47%
- RRT 1.67 MW = 556 [11]: 0.51%
- RRT 1.85 MW = 597 [11]: 0.10%
- Total [11]: 4.32%
- RRT 0.55 MW = 583 [12]: 0.43% and 0.07% and 0.17% and 0.22% and 0.33%
- Strength [12]: 17.950 mg/mL and 19.261 mg/mL and 19.215 mg/mL and 18.970 mg/mL and 18.475 mg/mL
- RRT 0.58 [13]: 0.08%
- RRT 0.74 Epimer [13]: 0.16%
- RRT 0.76 [13]: 0.05%
- RRT 1.45 [13]: 0.08%
- RRT 1.85 MW = 597 [13]: 0.08%
- Total [13]: 0.67%
- RRT 0.58 [14]: 0.07%
- RRT 0.74 Epimer [14]: 0.17%
- RRT 1.85 MW = 597 [14]: 0.07%
- Total [14]: 0.96%
- RRT 0.74 Epimer [15]: 0.19%
- RRT 0.76 [15]: 0.11%
- RRT 1.45 [15]: 0.10%
- RRT 1.85 MW = 597 [15]: 0.09%
- Total [15]: 1.58%
- RRT 0.74 Epimer [16]: 0.24%
- RRT 0.76 [16]: 0.12%
- RRT 1.85 MW = 597 [16]: 0.11%
- Total [16]: 3.15%
- RRT 0.58 [17]: 0.05%
- RRT 0.74 Epimer [17]: 0.28%
- RRT 0.76 [17]: 0.13%
- RRT 1.45 [17]: 0.07%
- RRT 1.85 MW = 597 [17]: 0.12%
- Total [17]: 4.23%
- RRT 1.67 MW = 556 (Run #E, 5° C., Oxygen = 2.0 mg/mL, hours 1,4,8,12,24 at r16-r20, at 24 h Mino is co-eluting, 1 hours): 0.08%
- RRT 1.67 MW = 556 (Run #E, 5° C., Oxygen = 2.0 mg/mL, hours 1,4,8,12,24 at r16-r20, at 24 h Mino is co-eluting, 4 hours): 0.16%
- RRT 1.67 MW = 556 (Run #E, 5° C., Oxygen = 2.0 mg/mL, hours 1,4,8,12,24 at r16-r20, at 24 h Mino is co-eluting, 8 hours): 0.26%
- RRT 1.67 MW = 556 (Run #E, 5° C., Oxygen = 2.0 mg/mL, hours 1,4,8,12,24 at r16-r20, at 24 h Mino is co-eluting, 12 hours): 0.39%
- RRT 1.67 MW = 556 (Run #E, 5° C., Oxygen = 2.0 mg/mL, hours 1,4,8,12,24 at r16-r20, at 24 h Mino is co-eluting, 24 hours): 0.44^a %
- Strength (Run #F, 2° C., Oxygen = 1.0 mg/mL, hours 1,4,8,12,24 at r5-r9, 1 h after preparation): 18.733 mg/mL
- Strength (Run #F, 2° C., Oxygen = 1.0 mg/mL, hours 1,4,8,12,24 at r5-r9, 4 h after preparation): 18.700 mg/mL
- Strength (Run #F, 2° C., Oxygen = 1.0 mg/mL, hours 1,4,8,12,24 at r5-r9, 8 h after preparation): 18.729 mg/mL
- Strength (Run #F, 2° C., Oxygen = 1.0 mg/mL, hours 1,4,8,12,24 at r5-r9, 12 h after preparation): 18.543 mg/mL
- Strength (Run #F, 2° C., Oxygen = 1.0 mg/mL, hours 1,4,8,12,24 at r5-r9, 24 h after preparation): 18.818 mg/mL
- RRT 0.58 [18]: 0.08%
- RRT 0.74 Epimer [18]: 0.15%
- RRT 1.45 [18]: 0.07%
- RRT 1.64 Mino [18]: 0.10%
- RRT 1.85 MW = 597 [18]: 0.07%
- Total [18]: 0.47%
- RRT 0.58 [19]: 0.07%
- RRT 0.74 Epimer [19]: 0.16%
- RRT 1.64 Mino [19]: 0.09%
- RRT 1.85 MW = 597 [19]: 0.09%
- Total [19]: 0.71%
- RRT 0.74 Epimer (Run #F, 2° C., hours 1,4,8,12,24 at r5-r9, 8 h after preparation): 0.17%
